In patent US11999746B2, “Compounds” (GlaxoSmithKline Intellectual Property Development Limited, priority 2014, dated 2024):

How the values were obtained:
Lp-PLA2 in human plasma = target: T1, Lp-PLA2 in human plasma (Homo sapiens, UniProt Q13093); test: (3a) Lp-PLA2 human plasma Thio-PAF assay; type: biochemical; conditions: (3a) Thio-PAF assay, pooled human plasma; Examples 1-265 and 413-430 were tested here; read-out: pIC50 in the Lp-PLA2 human plasma assay (converted)
T1 construct: from tissue; host or cells: pooled human plasma
T1 sequence (Q13093 22-441): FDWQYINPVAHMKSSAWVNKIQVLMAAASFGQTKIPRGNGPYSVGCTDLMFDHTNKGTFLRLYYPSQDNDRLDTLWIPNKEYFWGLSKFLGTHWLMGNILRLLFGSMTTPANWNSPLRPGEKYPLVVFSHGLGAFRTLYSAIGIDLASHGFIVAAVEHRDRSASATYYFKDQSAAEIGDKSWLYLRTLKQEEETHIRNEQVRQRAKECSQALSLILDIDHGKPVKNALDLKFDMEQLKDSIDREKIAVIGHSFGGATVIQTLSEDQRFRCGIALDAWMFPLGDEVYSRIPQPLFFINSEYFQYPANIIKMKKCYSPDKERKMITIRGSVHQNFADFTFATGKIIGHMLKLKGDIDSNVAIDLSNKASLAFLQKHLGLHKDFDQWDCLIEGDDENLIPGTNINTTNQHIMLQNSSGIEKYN
In short: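 Endogenous Lp-PLA2 activity in frozen pooled human plasma measured as thiol release from 2-thio-PAF, detected by CPM fluorescence (ex 380/em 485). Compound preincubation 30 min; 2-min reaction in HEPES pH 7.4 buffer with NEM, stopped with 5% TFA, read 40 min later at room temperature; values as pIC50.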

[1] = target: T2, recombinant human Lp-PLA2 (Homo sapiens, UniProt Q13093); test: (1a) PED6 assay, recombinant human Lp-PLA2 (rhLp-PLA2); type: biochemical; conditions: Examples 1-167 and 413-430 were tested here, one experiment or average of multiple experiments, read-out: rhLp-PLA2 (pIC50) (converted)
T2 sequence (Q13093 22-441): T1 sequence (Q13093 22-441)
From the text: (1) Recombinant Human Lp-PLA2 Assays (rhLp-PLA2)
N-((6-(2,4-Dinitrophenyl)amino)-hexanoyl)-2-(4,4-difluoro-5,7-dimethyl-4-bora-3a,4a-diaza-s-indacene-3-pentanoyl)-1-hexadecanoyl-sn-glycero-3-phosphoethanolamine, triethylammonium salt (PED6) is a commercially available fluorescently-labeled phospholipid, which is commercially available from Invitrogene and Molecular Probes. There is a quenching […] and a Bodipy fluorescein (FL) group in the sn2 position. Upon cleavage with Lp-PLA2, the Bodipy FL group is liberated and then may result in an increase in fluorescence. Inhibitors of Lp-PLA2 therefore prevent this cleavage and no fluorescent increase is observed.
The PED6 assay was run as an unquenched 10 μL assay. The source plate containing the compounds to be tested was prepared by making 1:3 (by volume) serial dilution of the compounds within DMSO on 384-well microplate. Then, 0.01 μL of the compounds on compound source plate were transferred into 384 well Greiner 784076 (black) plates using ECHO liquid dispenser. 5 μL of recombinant human Lp-PLA2 enzyme (4 nM) rhLp-PLA2 in assay buffer of 50 mM HEPES, pH 7.4, 150 mM NaCl, 1 mM CHAPS) was added to each well of the plate. Plates were centrifuged for 10 sec at 500 rpm. After 30 minutes preincubation, 5 μL of substrate (4 μM PED6 [from 5 mM DMSO stock] in assay buffer of 50 mM HEPES, pH 7.4, 150 mM NaCl, 1 mM CHAPS) was added to 384 well Greiner 784076 (black) plates. Plates were centrifuged for 10 sec at 500 rpm. The plate was covered to protect it from light and incubated for 20 min at room temperature. The plates were read for fluorescence intensity at ex: 480/em: 540 using ViewLux microplate imager for Envision spectrofluroimeters. pIC50 data, curve and QC analysis was conducted by using XL fit module in Excel.

IC50 (Lp-PLA2 in human plasma) | IC50 [1] | SMILES
≤ 100 nM | 0.0316 nM | O=c1nc(OCc2cc(F)c(Oc3ccnc(C(F)(F)F)c3)c(F)c2)cc2n1C[C@H]1COCCN21 [Example E113, (S)-7-((3,5-difluoro-4-((2-(trifluoromethyl)pyridin-4-yl)oxy)benzyl)oxy)-3,4, 11, 11a tetrahydropyrimido[6′,1′:2,3]imidazo[5,1-c][1,4]oxazin-9(1H)-one]
≤ 10000 nM | ≤ 100 nM | Cn1cc(Oc2c(F)cc(COc3cc4n(c(=O)n3)C[C@@H]3COCCN43)cc2F)cn1 [Example E120, (R)-7-((3,5-difluoro-4-((1-methyl-1H-pyrazol-4-yl)oxy)benzyl)oxy)-3,4,11,11a-tetrahydropyrimido[6′,1′:2,3]imidazo[5,1-c][1,4]oxazin-9(1H)-one]
≤ 100 nM | ≤ 100 nM | O=c1nc(OCc2cc(F)c(F)c(F)c2)cc2n1C[C@H]1COCCN21 [Example E116, (S)-7-((3,4,5-trifluorobenzyl)oxy)-3,4,11,11atetrahydropyrimido[6′,1′:2,3]imidazo[5,1-c][1,4] oxazin-9(1H)-one]
≤ 100 nM | ≤ 1 nM | O=c1nc(OCc2cc(F)c(Oc3ccc(C(F)(F)F)nc3)c(F)c2)cc2n1CC1CCCCN21 (stereo not drawn) [Example E39, 3-((3,5-Difluoro-4-((6-(trifluoromethyl)pyridin-3-yl)oxy)benzyl)oxy)-6,7,8,9,9a,10-hexahydro 1H-pyrido[1′,2′:3,4]imidazo[1,2-c]pyrimidin-1-one]
≤ 100 nM | ≤ 1 nM | O=c1nc(OCc2cc(F)c(Oc3cccc(C(F)(F)F)c3)c(F)c2)cc2n1C[C@@H]1CCCN21 [Example E83, (S)-3-((3,5-difluoro-4-(3-(trifluoromethyl)phenoxy)benzyl)oxy)-7,8,8a,9-tetrahydropyrrolo[1′,2′:3, 4]imidazo[1,2-c]pyrimidin-1(6H)-one]
≤ 10000 nM | ≤ 100 nM | O=c1nc(OCc2cc(F)c(OC3(CCF)CC3)c(F)c2)cc2n1C[C@@H]1CCOCN21 [Example E140, (S)-3-((3,5-difluoro-4-(1-(2-fluoroethyl)cyclopropoxy)benzyl)oxy)-8,9,9a,10-tetrahydropyrimido[6′,1′:2,3]imidazo[1,5-c][1,3]oxazin-1(6H)-one]
≤ 100 nM | ≤ 1 nM | Cc1ccc(Oc2c(F)cc(COc3cc4n(c(=O)n3)C[C@H]3COCN43)cc2F)cn1 [Example E149, (S)-6-((3,5-difluoro-4-((6-methylpyridin-3-yl)oxy)benzyl)oxy)-10,10a-dihydro-1H-oxazolo[3′,4′:3,4]imidazo[1,2-c]pyrimidin-8(3H)-one]
≤ 10000 nM | ≤ 100 nM | O=c1nc(OCc2cc(F)c(OC3CCCC(F)(F)C3)c(F)c2)cc2n1CC1CCCN21 (stereo not drawn) [Example E92, 3-((4-((3,3-difluorocyclohexyl)oxy)-3,5-difluorobenzyl)oxy)-7,8,8a,9-tetrahydropyrrolo[1′,2′:3,4]imidazo[1,2-c]pyrimidin-1(6H)-one]
≤ 10000 nM | ≤ 100 nM | CCn1cc(Oc2c(F)cc(COc3cc4n(c(=O)n3)C[C@H]3COCN43)cc2F)cn1 [Example E160, (S)-6-((4-((1-ethyl-1H-pyrazol-4-yl)oxy)-3,5-difluorobenzyl)oxy)-10,10a-dihydro-1H-oxazolo[3′,4′:3,4]imidazo[1,2-c]pyrimidin-8(3H)-one]
≤ 10000 nM | ≤ 100 nM | O=c1nc(OCc2cccc(F)c2)cc2n1C[C@@H]1CCOCN21 [Example E138, (S)-3-((3-fluorobenzyl)oxy)-8,9,9a,10-tetrahydropyrimido[6′,1′:2,3]imidazo[1,5-c][1,3] oxazin-1(6H)-one]
≤ 10000 nM | ≤ 100 nM | O=c1nc(OCc2cc(F)c(F)c(Cl)c2)cc2n1CC1CCCCN21 (stereo not drawn) [Example E16, 3-((3-Chloro-4,5-difluorobenzyl)oxy)-6,7,8,9,9a,10-hexahydro-1H-pyrido[1′,2′:3,4] imidazo[1,2-c]pyrimidin-1-one]
≤ 100 nM | ≤ 1 nM | O=c1nc(OCc2ccc(Oc3cncc(C(F)(F)F)c3)c(F)c2)cc2n1CC1CCCCN21 (stereo not drawn) [Example E47, 3-((3-Fluoro-4-((5-(trifluoromethyl)pyridin-3-yl)oxy)benzyl)oxy)-6,7,8,9,9a,10-hexahydro-1H-pyrido[1′,2′:3,4]imidazo[1,2-c]pyrimidin-1-one]
≤ 100 nM | ≤ 1 nM | N#Cc1cc(COc2cc3n(c(=O)n2)CC2CCCCN32)ccc1Oc1ccc(F)c(F)c1 (stereo not drawn) [Example E19, 2-(3,4-Difluorophenoxy)-5-(((1-oxo-6,7,8,9,9a,10-hexahydro-1H-pyrido[1′,2′:3,4]imidazo-[1,2-c]pyrimidin-3-yl)oxy)methyl)benzonitrile]
≤ 100 nM | ≤ 1 nM | O=c1nc(OCc2cc(F)c(Oc3ccnc(C(F)(F)F)c3)c(F)c2)cc2n1C[C@H]1COCN21 [Example E141, (S)-6-((3,5-difluoro-4-((2-(trifluoromethyl)pyridin-4-yl)oxy)benzyl)oxy)-10,10a-dihydro-1H-oxazolo[3′,4′:3,4]imidazo[1,2-c]pyrimidin-8(3H)-one]
≤ 100 nM | 0.501 nM | O=c1nc(OCc2cc(F)c(Oc3cnc(C(F)(F)F)nc3)c(F)c2)cc2n1CC1COCCN21 (stereo not drawn) [Example E110, 7-((3,5-Difluoro-4-((2-(trifluoromethyl)pyrimidin-5-yl)oxy)benzyl)oxy)-3,4,11,11a-tetra hydropyrimido[6′,1′:2,3]imidazo[5,1-c][1,4]oxazin-9(1H)-one]
≤ 10000 nM | ≤ 100 nM | O=c1nc(OCc2ccc(F)cc2F)cc2n1C[C@H]1COCCN21 [Example E126, (S)-7-((2,4-difluorobenzyl)oxy)-3,4,11,11a-tetrahydropyrimido[6′,1′:2,3]imidazo[5,1-c][1,4] oxazin-9(1H)-one]
≤ 100 nM | ≤ 1 nM | O=c1nc(OCc2cc(F)c(Oc3ccnc(C(F)(F)F)c3)c(F)c2)cc2n1CC1CCCCN21 (stereo not drawn) [Example E41]
≤ 100 nM | ≤ 100 nM | Cc1ncc(Oc2c(F)cc(COc3cc4n(c(=O)n3)C[C@H]3COCN43)cc2F)cn1 [Example E152, (S)-6-((3,5-difluoro-4-((2-methylpyrimidin-5-yl)oxy)benzyl)oxy)-10,10a-dihydro-1H-oxazolo[3′,4′:3,4]imidazo[1,2-c]pyrimidin-8(3H)-one]
≤ 100 nM | ≤ 1 nM | N#Cc1cc(COc2cc3n(c(=O)n2)CC2COCCN32)ccc1Oc1ccc(F)c(C(F)(F)F)c1 (stereo not drawn) [Example E111, 2-(4-Fluoro-3-(trifluoromethyl)phenoxy)-5-(((9-oxo-1,3,4,9,11,11a-hexahydropyrimido[6′,1′:2,3]imidazo[5,1-c][1,4]oxazin-7-yl)oxy)methyl)benzonitrile]
≤ 100 nM | ≤ 1 nM | O=c1nc(OCc2ccc(Oc3ccc(C(F)(F)F)nc3)c(F)c2)cc2n1CC1CCCCN21 (stereo not drawn) [Example E38, 3-((3-Fluoro-4-((6-(trifluoromethyl)pyridin-3-yl)oxy)benzyl)oxy)-6,7,8,9,9a,10-hexahydro-1H-pyrido[1′,2′:3,4]imidazo[1,2-c]pyrimidin-1-one]
≤ 10000 nM | ≤ 100 nM | O=c1nc(OCc2cc(F)c(Oc3ccc(C(F)(F)F)nc3)c(F)c2)cc2n1C[C@@H]1CCCN21 [Example E80, (S)-3-((3,5-difluoro-4-((6-(trifluoromethyl)pyridin-3-yl)oxy)benzyl)oxy)-7,8,8a,9-tetrahydro pyrrolo[1′,2′:3,4]imidazo[1,2-c]pyrimidin-1(6H)-one]
